# Measurements published in US9605006B2, “5-aryl-1-imino-1-oxo-[1,2,4]thiadiazines” (Hoffmann-La Roche Inc., priority 2013, dated 2017).
# Molecular target: BACE1 (Homo sapiens (Human), UniProt P56817)
# Test: Cellular Aβ-lowering assay (Abeta 40 AlphaLISA Assay)
# Format: cell-based
# Conditions: HEK293 APP cells, Aβ40 in culture supernatant after 18-20 hrs incubation
# Protocol: Cellular Aβ-Lowering Assay:
# The Abeta 40 AlphaLISA Assay can be used. The HEK293 APP cells were seeded in 96 well Microtiter plates in cell culture medium (Iscove's, plus 10% (v/v) fetal bovine serum, penicillin/streptomycin) to about 80% confluency and the compounds were added at a 3× concentration in ⅓ volume of culture medium (final DMSO concentration was kept at 1% v/v). After 18-20 hrs incubation at 37° C. and 5% CO2 in a humidified incubator, the culture supernatants were harvested for the determination of Aβ40 concentrations using Perkin-Elmer Human Amyloid beta 1-40 (high specificity) Kit (Cat# AL275C).
# In a Perkin-Elmer White Optiplate-384 (Cat#6007290), 2 ul culture supernatants were combined with 2μl of a 10× AlphaLISA Anti-hAβAcceptor beads+Biotinylated Antibody Anti-Aβ1-40 Mix (50 μg/mL/5 nM). After 1 hour room temperature incubation, 16 μl of a 1.25× preparation of Streptavidin (SA) Donor beads (25 μg/mL) were added and incubated for 30 minutes in the Dark. Light Emission at 615 nm was then recorded using EnVision-Alpha Reader. Levels of Aβ40 in the culture supernatants were calculated as percentage of maximum signal (cells treated with 1% DMSO without inhibitor). The IC50 values were calculated using the Excel XLfit software.
# Chain of BACE1 (P56817 46-501): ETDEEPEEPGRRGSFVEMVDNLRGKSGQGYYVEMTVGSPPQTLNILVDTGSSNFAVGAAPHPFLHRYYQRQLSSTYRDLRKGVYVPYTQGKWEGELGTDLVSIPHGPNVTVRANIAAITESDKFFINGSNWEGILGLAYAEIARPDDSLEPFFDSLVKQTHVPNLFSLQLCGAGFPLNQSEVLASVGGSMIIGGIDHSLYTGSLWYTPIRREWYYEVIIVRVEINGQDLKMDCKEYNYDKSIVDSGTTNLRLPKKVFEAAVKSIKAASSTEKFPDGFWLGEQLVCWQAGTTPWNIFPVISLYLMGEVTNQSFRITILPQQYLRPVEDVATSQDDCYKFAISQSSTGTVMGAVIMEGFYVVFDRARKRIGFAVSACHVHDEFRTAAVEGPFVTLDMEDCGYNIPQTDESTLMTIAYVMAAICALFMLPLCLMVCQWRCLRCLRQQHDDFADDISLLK
row,Structure (SMILES),IC50
1,"CC1(c2cc(NC(=O)c3ccc(C#N)cn3)ccc2F)CS2(=O)=NCCCCN2C(N)=N1 (stereo in doubt) [Example 1, 5-cyano-pyridine-2-carboxylic acid [3-((3RS,4aRS)-1-amino-3-methyl-4a-oxo-3,4,6,7,8,9-hexahydro-4aλ^6-thia-2,5,9a-triaza-benzocyclohepten-3-yl)-4-fluoro-phenyl]-amide]",45 nM
2,"CC1(c2cc(NC(=O)c3ccc(C#N)cn3)ccc2F)CS2(=O)=NCCCCN2C(N)=N1 (stereo in doubt) [Example 2, 5-cyano-pyridine-2-carboxylic acid [3-((3RS,4aSR)-1-amino-3-methyl-4a-oxo-3,4,6,7,8,9-hexahydro-4aλ^6-thia-2,5,9a-triaza-benzocyclohepten-3-yl)-4-fluoro-phenyl]-amide]",2 nM
3,"C[C@@]1(c2cc(NC(=O)c3ncc(C#N)cc3Cl)ccc2F)CS2(=O)=NCCCCN2C(N)=N1 (stereo in doubt) [Example 20, 3-Chloro-5-cyano-pyridine-2-carboxylic acid [3-((3R,4aS)-1-amino-3-methyl-4a-oxo-3,4,6,7,8,9-hexahydro-4aλ^6-thia-2,5,9a-triaza-benzocyclohepten-3-yl)-4-fluoro-phenyl]-amide]",1 nM
4,"C[C@@]1(c2cc(NC(=O)c3ccc(OCC(F)(F)F)cn3)ccc2F)CS2(=O)=NCCCCN2C(N)=N1 (stereo in doubt) [Example 21, 5-(2,2,2-Trifluoro-ethoxy)-pyridine-2-carboxylic acid [3-((3R,4aS)-1-amino-3-methyl-4a-oxo-3,4,6,7,8,9-hexahydro-4aλ^6-thia-2,5,9a-triaza-benzocyclohepten-3-yl)-4-fluoro-phenyl]-amide]",10 nM
5,"CC#CCOc1cnc(C(=O)Nc2ccc(F)c([C@]3(C)CS4(=O)=NCCCCN4C(N)=N3)c2)cn1 (stereo in doubt) [Example 22, 5-But-2-ynyloxy-pyrazine-2-carboxylic acid [3-((3R,4aS)-1-amino-3-methyl-4a-oxo-3,4,6,7,8,9-hexahydro-4aλ^6-thia-2,5,9a-triaza-benzocyclohepten-3-yl)-4-fluoro-phenyl]-amide]",0.2 nM
6,"Cc1cc(F)cnc1C(=O)Nc1ccc(F)c([C@]2(C)CS3(=O)=NCCCCN3C(N)=N2)c1 (stereo in doubt) [Example 23, 5-Fluoro-3-methyl-pyridine-2-carboxylic acid [3-((3R,4aS)-1-amino-3-methyl-4a-oxo-3,4,6,7,8,9-hexahydro-4aλ^6-thia-2,5,9a-triaza-benzocyclohepten-3-yl)-4-fluoro-phenyl]-amide]",1.5 nM
7,"CC1(c2ccccc2F)CS2(=O)=NCCCCN2C(N)=N1 (stereo in doubt) [Example A20a2, (3RS,4aSR)-3-(2-Fluoro-phenyl)-3-methyl-4a-oxo-3,4,6,7,8,9-hexahydro-4aλ^6-thia-2,5,9a-triaza-benzocyclohepten-1-ylamine]",1040 nM
8,"C[C@@]1(c2cc(-c3cc(-c4ncc(Cl)cn4)no3)ccc2F)C[S@@]2(=O)=NCCCCN2C(N)=N1 [Example 13, (9R,11R)-7-Amino-9-(5-(3-(5-chloropyrimidin-2-yl)isoxazol-5-yl)-2-fluorophenyl)-9-methyl-2,3,4,5,9,10-hexahydro-[1,2,4]thiadiazino[1,2-a][1,2,7]thiadiazepine 11-oxide 2,2,2-trifluoroacetate]",12 nM
9,"C[C@@]1(c2cc(-c3cc(-c4ncc(Cl)cn4)no3)ccc2F)C[S@]2(=O)=NCCCCN2C(N)=N1 [Example 14, (9R,11S)-7-Amino-9-(5-(3-(5-chloropyrimidin-2-yl)isoxazol-5-yl)-2-fluorophenyl)-9-methyl-2,3,4,5,9,10-hexahydro-[1,2,4]thiadiazino[1,2-a][1,2,7]thiadiazepine 11-oxide 2,2,2-trifluoroacetate]",95 nM
10,"C[C@@]1(c2cc(-c3cn(-c4ccc(C#N)cn4)nn3)ccc2F)C[S@]2(=O)=NCCCCN2C(N)=N1 [Example 15, 6-(4-(3-((9R,11S)-7-Amino-9-methyl-11-oxido-2,3,4,5,9,10-hexahydro-[1,2,4]thiadiazino[1,2-a][1,2,7]thiadiazepin-9-yl)-4-fluorophenyl)-1H-1,2,3-triazol-1-yl)nicotinonitrile 2,2,2-trifluoroacetate]",95 nM
11,"C[C@@]1(c2cc(C#Cc3ccc(C#N)cc3)ccc2F)C[S@@]2(=O)=NCCCCN2C(N)=N1 [Example 16, 4-((3-((9R,11R)-7-amino-9-methyl-11-oxido-2,3,4,5,9,10-hexahydro-[1,2,4]thiadiazino[1,2-a][1,2,7]thiadiazepin-9-yl)-4-fluorophenyl)ethynyl)benzonitrile 2,2,2-trifluoroacetate]",21 nM
12,"COc1cnc(-c2cc(-c3ccc(F)c([C@]4(C)C[S@@]5(=O)=NCCCCN5C(N)=N4)c3)on2)cn1 [Example 17, (9R,11R)-7-Amino-9-(2-fluoro-5-(3-(5-methoxypyrazin-2-yl)isoxazol-5-yl)phenyl)-9-methyl-2,3,4,5,9,10-hexahydro-[1,2,4]thiadiazino[1,2-a][1,2,7]thiadiazepine 11-oxide 2,2,2-trifluoroacetate]",9 nM
13,"COc1cnc(-c2cc(-c3ccc(F)c([C@]4(C)C[S@]5(=O)=NCCCCN5C(N)=N4)c3)on2)cn1 [Example 18, (9R,11S)-7-amino-9-(2-fluoro-5-(3-(5-methoxypyrazin-2-yl)isoxazol-5-yl)phenyl)-9-methyl-2,3,4,5,9,10-hexahydro-[1,2,4]thiadiazino[1,2-a][1,2,7]thiadiazepine 11-oxide 2,2,2-trifluoroacetate]",694 nM
14,"C[C@@]1(c2cc(-c3cc(-c4cnc(OCC(F)F)cn4)no3)ccc2F)C[S@@]2(=O)=NCCCCN2C(N)=N1 [Example 19, (9R,11R)-7-Amino-9-(5-(3-(5-(2,2-difluoroethoxy)pyrazin-2-yl)isoxazol-5-yl)-2-fluorophenyl)-9-methyl-2,3,4,5,9,10-hexahydro-[1,2,4]thiadiazino[1,2-a][1,2,7]thiadiazepine 11-oxide 2,2,2-trifluoroacetate]",14 nM
15,"Cc1cc(C#N)cnc1C(=O)Nc1ccc(F)c([C@]2(C)CS3(=O)=NCC(F)(F)CN3C(N)=N2)c1 (stereo partly drawn) [Example 25, N-(3-((8R)-6-amino-3,3-difluoro-8-methyl-10-oxido-3,4,8,9-tetrahydro-2H-[1,2,6]thiadiazino[1,2-a][1,2,4]thiadiazin-8-yl)-4-fluorophenyl)-5-cyano-3-methylpicolinamide]",2 nM
